Assay results from publication PMC8125234, “Cardiolipin Stabilizes and Increases Catalytic Efficiency of Carnitine Palmitoyltransferase II and Its Variants S113L, P50H, and Y479F” (International Journal of Molecular Sciences, 2021).
Residue numbers refer to the chain shown, from its start.

Columns and labels:
CPT II variant P50H [1] = molecular target: T1, CPT II variant P50H (Homo sapiens, UniProt P23786, P50H); assay: Lipid binding assay (membrane lipid strips); conditions: 0.4 mg enzyme, 100 pmol lipid spots
T1 construct: made in house; host or cells: Escherichia coli BL21Gold DE
T1 sequence (P23786 26-658 P50H): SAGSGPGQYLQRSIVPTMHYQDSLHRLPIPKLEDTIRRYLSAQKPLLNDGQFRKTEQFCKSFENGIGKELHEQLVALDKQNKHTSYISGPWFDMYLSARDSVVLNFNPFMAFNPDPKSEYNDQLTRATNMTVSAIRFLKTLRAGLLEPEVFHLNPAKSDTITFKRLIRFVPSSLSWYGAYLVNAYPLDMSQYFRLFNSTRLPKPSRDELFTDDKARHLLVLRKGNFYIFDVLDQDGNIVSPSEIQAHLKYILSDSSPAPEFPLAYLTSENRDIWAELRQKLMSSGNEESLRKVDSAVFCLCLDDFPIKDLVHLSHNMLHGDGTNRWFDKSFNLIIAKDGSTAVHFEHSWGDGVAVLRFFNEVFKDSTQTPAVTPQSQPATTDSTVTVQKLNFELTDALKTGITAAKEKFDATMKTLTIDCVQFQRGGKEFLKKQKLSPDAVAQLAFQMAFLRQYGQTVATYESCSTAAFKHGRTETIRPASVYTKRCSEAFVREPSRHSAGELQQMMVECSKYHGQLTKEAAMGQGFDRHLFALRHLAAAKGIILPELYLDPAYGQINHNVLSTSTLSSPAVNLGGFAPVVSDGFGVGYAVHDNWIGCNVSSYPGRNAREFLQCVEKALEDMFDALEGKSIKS
Experimental: (§1) Direct interaction of CPT II WT and variants with phospholipids of the mitochondrial membrane was assessed using membrane lipid strips (Echelon Biosciences, Salt Lake City, Utah, USA). The membrane was spotted with 100 pmol of various cell membrane lipids. The assay was performed following manufacturer’s instructions with some modifications explained in the following. At first, the membrane was washed twice in phosphate buffered saline (PBS). After 1 h incubation with blocking solution (3% BSA fatty acid-free in PBS) at room temperature, the membrane was incubated with purified CPT II WT or variant (final amount 0.4 mg protein) for 2 h at 4 °C. After three washing steps, a-His-Probe (H3) mouse monoclonal antibody (Santa Cruz Biotech, Santa Cruz, CA, USA, 1:1000 dilution in PBS containing 3% BSA) was added to the membrane over night at 4 °C. The membrane was washed three times with PBS and incubated with mouse IgG horseradish peroxidase-linked whole antibody (from sheep, Amersham, Little Chalfont, Buckinghamshire, UK) for 1 h at 4 °C. The interaction was visualized by ECL Western blotting detection reagents (Amersham, Little Chalfont, Buckinghamshire, UK).

CPT II variant Y479F [2] = molecular target: T2, CPT II variant Y479F (Homo sapiens, UniProt P23786, Y479F); assay: Lipid binding assay (membrane lipid strips); conditions: 0.4 mg enzyme, 100 pmol lipid spots
T2 construct: made in house; host or cells: Escherichia coli BL21Gold DE
T2 sequence (P23786 26-658 Y479F): T1 sequence (P23786 26-658 P50H) with H25P, Y454F
Experimental: as §1

CPT II WT [3] = molecular target: T3, CPT II WT (Homo sapiens, UniProt P23786); assay: Lipid binding assay (membrane lipid strips); conditions: 0.4 mg enzyme, 100 pmol lipid spots
T3 construct: made in house; host or cells: Escherichia coli BL21Gold DE
T3 sequence (P23786 26-658): T1 sequence (P23786 26-658 P50H) with H25P
Experimental: as §1

CPT II variant S113L [4] = molecular target: T4, CPT II variant S113L (Homo sapiens, UniProt P23786, S113L); assay: Lipid binding assay (membrane lipid strips); conditions: 0.4 mg enzyme, 100 pmol lipid spots
T4 construct: made in house; host or cells: Escherichia coli BL21Gold DE
T4 sequence (P23786 26-658 S113L): T1 sequence (P23786 26-658 P50H) with H25P, S88L
Experimental: as §1

CPT II variant Y479F [5] = molecular target: T2, CPT II variant Y479F; assay: nanoDSF protein stability in presence of CL or β-OG; type: binding
Experimental: (§2) NanoDSF is a standard method for the investigation of the folding/unfolding of proteins and the interaction of proteins with effectors/ligands/substrates
(§3) The protein stability was investigated applying nano differential scanning fluorimetry (nanoDSF) using a protein concentration of 1 mg/mL in assay buffer. […] The heating rate has been set to 1 °C per min. A heating ramp from 15 to 95 °C was determined. The nanoDSF data were obtained using a Prometheus NT.48 device. First derivatives were calculated using PR.ThermControl software (NanoTemper Technologies GmbH, Munich, Germany). Experiments were performed at least three times independently as double determination.

CPT II WT [6] = molecular target: T3, CPT II WT; assay: as above; type: binding
Experimental: as §2, §3

CPT II variant P50H [7] = molecular target: T1, CPT II variant P50H; assay: as above; type: binding; conditions: 1 mg/mL protein
Experimental: as §2, §3

CPT II variant S113L [8] = molecular target: T4, CPT II variant S113L; assay: as above; type: binding
Experimental: as §2, §3

[9] = reference TM of WT in buffer (ΔTM = 0 °C)

**Q.** For phosphatidylserine [PS], which “Signal for interaction on membrane lipid strips” value (from here on “Signal for interaction”) (CPT II variant P50H [1]) is on record?
**A.** reduced

**Q.** With “phosphatidylinositol (3,4,5)-trisphosphate [PtdIns(3,4,5)P3]” as the compound, how does the “Signal for interaction” value (CPT II variant Y479F [2]) read?
**A.** highest signal

**Q.** What about the “Signal for interaction” value (CPT II WT [3]) of the same compound?
**A.** highest signal

**Q.** And the “Signal for interaction” value (CPT II variant P50H [1])?
**A.** highest signal

**Q.** What about the “Signal for interaction” value (CPT II variant S113L [4]) of the same compound?
**A.** highest signal

**Q.** Which “Signal for interaction” value (CPT II variant P50H [1]) does the source give for phosphatidylglycerol [PG] here?
**A.** lower detection signal

**Q.** And the “Signal for interaction” value (CPT II variant S113L [4])?
**A.** lower detection signal

**Q.** What does the source list for `CCCCCCCCO[C@@H]1O[C@H](CO)[C@@H](O)[C@H](O)[C@H]1O` [β-OG, n-octyl-β-d-glucopyranoside]?
**A.** TM in Buffer with 1 % β-OG (CPT II variant Y479F [5]; 1 mg/mL protein): 49.0 ± 0.5 °C; ∆TM in Buffer with 1 % β-OG (CPT II variant Y479F [5]; [9]): 12.1 ± 0.5 °C; TM in Buffer with 1 % β-OG (CPT II WT [6]; 1 mg/mL protein): 49.9 ± 0.7 °C; ∆TM in Buffer with 1 % β-OG (CPT II WT [6]; [9]): 13.0 ± 0.7 °C; TM in Buffer with 1 % β-OG (CPT II variant P50H [7]): 43.5 ± 0.4 °C; TM in Buffer with 1 % β-OG (CPT II variant S113L [8]; 1 mg/mL protein): 45.3 ± 0.6 °C; ∆TM in Buffer with 1 % β-OG (CPT II variant S113L [8]; [9]): 8.4 ± 0.6 °C

**Q.** “phosphatidylinositol (4,5)-bisphosphate [PtdIns(4,5)P2]” was tested. Which “Signal for interaction” value (CPT II variant Y479F [2]) did it give?
**A.** highest signal

**Q.** What about the “Signal for interaction” value (CPT II WT [3]) of the same compound?
**A.** highest signal

**Q.** What about the “Signal for interaction” value (CPT II variant P50H [1]) of the same compound?
**A.** highest signal

**Q.** And the “Signal for interaction” value (CPT II variant S113L [4])?
**A.** highest signal

**Q.** Which results are given for phosphatidylinositol [PI]?
**A.** Signal for interaction on membrane lipid strips (CPT II variant Y479F [2]): interaction with PI was detected; Signal for interaction on membrane lipid strips (CPT II WT [3]): interaction with PI was detected; Signal for interaction on membrane lipid strips (CPT II variant P50H [1]): No signal; Signal for interaction on membrane lipid strips (CPT II variant S113L [4]): interaction with PI was detected
